# Experimental data published in the supplement of paper PMC10307832.
# Assays:
# Assay in all cases: relative viability (nuclei count vs DMSO), 5 days (fraction); higher = more cells survive
# [1] = compound: C1CC(C2=C(C1)C3=C(N2)C=CC(=C3)Cl)C(=O)N [Selisistat] + CC1(C)CCC(c2ccc(Cl)cc2)=C(CN2CCN(c3ccc(C(=O)NS(=O)(=O)c4ccc(N[C@H](CCN5CCOCC5)CSc5ccccc5)c(S(=O)(=O)C(F)(F)F)c4)cc3)CC2)C1 [Navitoclax] (partner 0.5 µM)
# How it was run: (§1)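 After 5 days of treatment, lung cancer cells in 1536-well plates were fixed and stained in a single step (final 0.05% Triton X-100, 1% formaldehyde, 1 ug/ml Hoechst) and their nuclei counted on 4× images. Treatment had been applied by pin tool the day after seeding as one drug alone or as a fixed anchor-drug dose with five library-drug doses (not always all listed) in √10 steps. Relative viability is the nuclei count of treated wells divided by that of vehicle wells, and values are medians of duplicate plates.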
# [2] = compound: C1CC(C2=C(C1)C3=C(N2)C=CC(=C3)Cl)C(=O)N [Selisistat] + N=C(N)NC(=N)NCCc1ccccc1 [Phenformin] (partner 250 µM)
# How it was run: as §1
# [3] = compound: c1ccc2c(CCNc3ccc(Nc4ccncc4)cc3)c[nH]c2c1 [Serdemetan] + CCNC(=O)c1noc(-c2cc(C(C)C)c(O)cc2O)c1-c1ccc(CN2CCOCC2)cc1 [Luminespib] (partner 0.01 µM)
# How it was run: as §1
# [4] = compound: c1ccc2c(CCNc3ccc(Nc4ccncc4)cc3)c[nH]c2c1 [Serdemetan] + Cc1nc(NC(=O)N2CCC[C@H]2C(N)=O)sc1-c1ccnc(C(C)(C)C(F)(F)F)c1 [Alpelisib] (partner 2 µM)
# How it was run: as §1
Cell Line,relative viability ([1]; first compound 0.4 µM),relative viability ([1]; first compound 1.265 µM),relative viability ([1]; first compound 4 µM),relative viability ([1]; first compound 12.65 µM),relative viability ([1]; first compound 40 µM),relative viability ([2]; first compound 0.4 µM),relative viability ([2]; first compound 1.265 µM),relative viability ([2]; first compound 4 µM),relative viability ([2]; first compound 12.65 µM),relative viability ([2]; first compound 40 µM),relative viability ([3]; first compound 0.04 µM),relative viability ([3]; first compound 0.1265 µM),relative viability ([3]; first compound 0.4 µM),relative viability ([3]; first compound 1.265 µM),relative viability ([3]; first compound 4 µM),relative viability ([4]; first compound 0.04 µM),relative viability ([4]; first compound 0.1265 µM),relative viability ([4]; first compound 0.4 µM),relative viability ([4]; first compound 1.265 µM),relative viability ([4]; first compound 4 µM)
NCI-H1755,1.08,1.08,1,0.99,1.06,0.645,0.615,0.585,0.559,0.618,0.417,0.43,0.568,0.39,0.343,0.893,0.898,0.815,0.499,0.456
NCI-H1792,0.609,0.611,,0.629,0.594,0.301,0.357,,0.324,0.224,0.471,0.407,0.422,0.415,0.298,0.697,0.686,0.567,0.529,0.257
NCI-H1793,0.446,0.326,,0.472,0.545,0.398,0.366,,0.303,0.388,0.17,0.186,0.343,0.169,0.165,0.704,0.738,0.754,0.53,0.347
NCI-H1915,0.782,0.776,0.83,0.797,0.804,0.377,0.356,0.368,0.355,0.368,0.74,0.73,0.672,0.514,0.532,1.04,1.06,1.01,0.503,0.802
NCI-H1944,1.1,0.998,,1.04,0.927,0.209,0.201,,0.196,0.214,0.664,0.679,0.691,0.249,0.306,0.806,0.753,0.715,,0.453
NCI-H1975,1.08,0.913,1.05,0.982,0.976,0.419,0.422,0.366,0.41,0.382,0.371,0.393,0.176,0.18,0.17,0.68,0.675,0.666,0.637,0.803
NCI-H1993,0.969,0.891,,1.03,0.986,0.518,0.545,0.528,0.556,0.537,0.981,0.778,0.811,0.768,0.758,0.715,0.802,0.621,,0.67
NCI-H2009,1.18,1.15,1.19,1.14,1.1,0.509,0.483,0.366,0.449,0.422,0.925,0.979,0.997,1.01,0.888,1.18,1.11,1.08,1.12,0.964
NCI-H2023,1.03,0.986,0.989,0.948,0.92,0.413,0.398,0.455,0.312,0.357,0.818,0.857,0.721,0.334,0.193,0.613,0.651,0.521,0.375,0.266
NCI-H2085,1.16,1.15,1.12,1.15,1.21,0.824,0.717,0.472,0.735,0.728,0.454,0.394,0.457,0.382,0.354,0.952,0.911,0.801,0.573,0.585
NCI-H2087,1.13,0.99,1.02,0.926,0.779,0.54,0.455,,0.44,0.472,0.176,0.147,0.168,0.184,0.123,1.1,0.986,1.09,0.669,0.532
NCI-H2126,0.888,0.837,0.829,0.899,0.913,0.516,0.489,0.499,0.537,0.551,0.983,0.964,0.9,0.88,1.01,0.721,0.753,0.741,0.575,0.762
NCI-H2170,0.601,0.623,0.618,0.708,0.713,0.413,0.417,0.4,0.432,0.458,0.643,0.596,0.807,0.459,0.56,0.776,0.854,0.833,0.721,0.811
NCI-H2228,1.15,0.894,0.759,0.939,0.747,0.301,0.271,0.205,0.295,0.307,0.119,0.201,0.159,0.16,0.145,0.762,0.554,0.46,0.307,0.294
NCI-H2347,0.846,0.847,0.588,0.792,0.853,0.4,0.438,0.228,0.382,0.276,1.08,0.56,0.215,0.264,0.292,0.936,1.02,1.01,0.866,0.703
NCI-H2405,0.785,,,0.804,0.793,0.401,0.333,0.222,0.393,0.397,0.716,0.664,0.64,0.573,0.596,0.881,0.918,0.826,0.772,0.543
NCI-H3122,1.01,1.02,0.935,1.04,0.961,0.406,0.367,0.294,0.369,0.371,0.0976,0.0835,0.115,,0.101,0.809,0.715,0.779,,0.771
